This is an account of results in ChEMBL document CHEMBL1136755, “Mapping property distributions of molecular surfaces: algorithm and evaluation of a novel 3D quantitative structure-activity relationship technique” (J Med Chem, 2003).

One assay addresses T1, Corticosteroid-binding globulin (Homo sapiens) (UniProt P08185).
T1 sequence (whole entry): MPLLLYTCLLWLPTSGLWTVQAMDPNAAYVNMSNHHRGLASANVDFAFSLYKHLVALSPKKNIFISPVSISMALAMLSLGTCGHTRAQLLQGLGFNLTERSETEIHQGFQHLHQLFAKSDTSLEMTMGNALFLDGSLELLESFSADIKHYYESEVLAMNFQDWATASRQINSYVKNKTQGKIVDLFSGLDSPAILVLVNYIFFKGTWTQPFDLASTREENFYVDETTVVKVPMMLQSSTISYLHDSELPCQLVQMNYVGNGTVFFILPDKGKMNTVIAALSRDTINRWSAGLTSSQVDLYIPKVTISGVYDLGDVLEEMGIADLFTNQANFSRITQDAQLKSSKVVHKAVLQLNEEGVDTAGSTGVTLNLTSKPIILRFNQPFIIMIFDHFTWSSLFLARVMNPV
Description: Binding affinity towards corticosteroid-binding globulin (CBG)
`C[C@]12CC[C@H]3[C@@H](CCC4=CC(=O)CC[C@@]43C)[C@@H]1CC[C@@H]2O` had a Log K of 6.72. The same measure, in the same setting: as for `C[C@]12CCC(=O)C=C1CC[C@@H]1[C@@H]2CC[C@]2(C)C(=O)CC[C@@H]12`, the figure is 5.76. Same read-out and setting: as for `CC(=O)[C@@]1(O)[C@H](O)C[C@H]2[C@@H]3CCC4=CC(=O)CC[C@]4(C)[C@H]3CC[C@@]21C`, the figure is 6.25; as for `C[C@]12CC[C@H](O)CC1=CC[C@@H]1[C@@H]2CC[C@]2(C)C(=O)CC[C@@H]12`, 5; as for `C[C@]12CC[C@H]3[C@@H](CCC4=CC(=O)CC[C@@]43C)[C@@H]1CC[C@@H]2C(=O)CO`, 7.65. In turn, `C[C@]12C=CC(=O)C=C1CC[C@@H]1[C@@H]2[C@@H](O)C[C@@]2(C)[C@H]1CC[C@]2(O)C(=O)CO` displayed a Log K of 7.51.

`C[C@@H]1C[C@@]2(C)C(=CC1=O)CC[C@H]1[C@@H]3CC[C@](O)(C(=O)CO)[C@@]3(C)C[C@H](O)[C@@]12F` had a Log K of 5.8. In turn, `C[C@]12CC[C@@H]3c4ccc(O)cc4CC[C@H]3[C@@H]1CC[C@@H]2O` gave a Log K of 5.

With `CC(=O)OCC(=O)[C@@]1(O)CC[C@H]2[C@@H]3CCC4=CC(=O)CC[C@]4(C)[C@H]3[C@@H](O)C[C@@]21C`, the Log K was 7.55. On the same count and under the same terms, as for `CC(=O)[C@H]1CC[C@H]2[C@@H]3CCC4=CC(=O)CC[C@]4(C)[C@H]3C(=O)C[C@]12C`, the figure is 6.78. `CC(=O)[C@H]1CC[C@H]2[C@@H]3CCC4=CC(=O)CC[C@@H]4[C@H]3CC[C@]12C` had a Log K of 6.82.

For the compound `CC(=O)[C@H]1CC[C@H]2[C@@H]3CCC4=CC(=O)CC[C@]4(C)[C@H]3CC[C@]12C`, the Log K came to 7.38. On the same count and under the same terms, as for `C[C@]12CCC(=O)C=C1CC[C@@H]1[C@@H]2C(=O)C[C@@]2(C)[C@H]1CC[C@]2(O)C(=O)CO`, the figure is 6.89; as for `C[C@]12CCC(=O)C=C1CC[C@@H]1[C@@H]2CC[C@@]2(C)[C@H]1CC[C@]2(O)C(=O)CO`, 7.88.

In the case of `C[C@]12C[C@@H](O)[C@H]3[C@@H](CCC4=CC(=O)CC[C@@]43C)[C@@H]1CC[C@@H]2C(=O)CO`, the Log K worked out at 7.2.

In the case of `C[C@]12C[C@H](O)[C@H]3[C@@H](CCC4=CC(=O)CC[C@@]43C)[C@@H]1CC[C@@H]2C(=O)CO`, the Log K was 7.88. The same measure, in the same setting: with `CC(=O)[C@H]1CC[C@H]2[C@@H]3CC=C4C[C@@H](O)CC[C@]4(C)[C@H]3CC[C@]12C` the figure was 5.25; with `CC(=O)[C@H]1[C@H](C)C[C@H]2[C@@H]3CCC4=CC(=O)CC[C@]4(C)[C@H]3CC[C@@]21C`, 7.12; with `C[C@]12CC[C@H]3[C@@H](CCC4=CC(=O)CC[C@@H]43)[C@@H]1CC[C@@H]2O`, 6.14. In turn, `CC(=O)[C@@]1(O)CC[C@H]2[C@@H]3CC[C@@H]4C[C@H](O)CC[C@]4(C)[C@H]3CC[C@@]21C` returned a Log K of 5. Still for that read-out and setting: with `C[C@]12CC[C@@H]3c4ccc(O)cc4CC[C@H]3[C@@H]1C[C@@H](O)[C@@H]2O` the figure was 5; with `CC(=O)[C@@]1(O)CC[C@H]2[C@@H]3CCC4=CC(=O)CC[C@]4(C)[C@H]3CC[C@@]21C`, 7.74. Turning to `C[C@]12CC[C@H](O)C[C@@H]1CC[C@@H]1[C@@H]2CC[C@]2(C)[C@@H](O)CC[C@@H]12`, the Log K is 5. Same read-out and setting: as for `C[C@]12CCC(=O)C=C1CC[C@@H]1[C@@H]2[C@@H](O)C[C@@]2(C)[C@H]1CC[C@]2(O)C(=O)CO`, the figure is 7.88.

A further assay deals with T2, Muscarinic acetylcholine receptor M2 (Sus scrofa, UniProt P06199).
T2 sequence (P06199 whole entry): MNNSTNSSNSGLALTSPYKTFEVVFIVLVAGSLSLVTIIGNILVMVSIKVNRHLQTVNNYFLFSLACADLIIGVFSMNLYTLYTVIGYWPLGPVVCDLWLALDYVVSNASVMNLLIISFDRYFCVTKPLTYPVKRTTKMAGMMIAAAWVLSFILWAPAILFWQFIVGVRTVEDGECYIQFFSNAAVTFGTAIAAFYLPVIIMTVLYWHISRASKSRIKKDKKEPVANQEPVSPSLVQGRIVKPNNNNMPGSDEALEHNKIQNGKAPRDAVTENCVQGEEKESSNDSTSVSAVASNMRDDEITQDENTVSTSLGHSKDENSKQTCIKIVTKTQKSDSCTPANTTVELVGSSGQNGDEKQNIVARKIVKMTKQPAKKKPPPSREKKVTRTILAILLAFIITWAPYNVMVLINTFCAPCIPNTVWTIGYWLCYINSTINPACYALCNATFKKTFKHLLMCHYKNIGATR
As to the kind of experiment: Ability to dissociate radioligand [3H]NMS from muscarinic acetylcholine receptor M2 of porcine heart.
On to `O=C1c2ccccc2C(=O)N1CCCN(CCCCCCN(CCCN1C(=O)c2ccccc2C1=O)C1CCCCC1)C1CCCCC1`, for which the EC50 – broadly, the concentration that produces a half-maximal response – is 0.045 µM. The same measure, in the same setting: as for `N#CCCN(CCCCCCN(CCC#N)CCCN1C(=O)c2ccccc2C1=O)CCCN1C(=O)c2ccccc2C1=O`, the figure is 0.74 µM. Turning to `C[N+](C)(CCCCCC[N+](C)(C)CCCN1c2ccccc2C(=O)NC1c1ccccc1)CCCN1c2ccccc2C(=O)NC1c1ccccc1` (stereo not given), the EC50 was 0.741 µM. `C[N+](C)(CCCCCC[N+](C)(C)CCCN1C(=O)c2cccc3cccc(c23)C1=O)CCCN1C(=O)c2ccccc2C1=O` had an EC50 of 0.0631 µM. Same read-out and setting: as for `C[N+](C)(CCCCCC[N+](C)(C)CCCN1C(=O)c2ccccc2C1=O)CCCN1C(=O)CCC1=O`, the figure is 9.77 µM; as for `C[N+](C)(CCCCCCC[N+](C)(C)CCCN1C(=O)[C@H]2CC=CC[C@H]2C1=O)CCCN1C(=O)[C@H]2CC=CC[C@H]2C1=O`, 2.2 µM; as for `CC[N+](C)(C)CCCCCC[N+](C)(C)CCCN1C(=O)c2ccccc2C1=O`, 10 µM. The compound `Cc1ccc2c(c1)C(=O)N(CCCN(CCCCCCN(CCCN1C(=O)c3ccc(C)cc3C1=O)C1CCCCC1)C1CCCCC1)C2=O` gave an EC50 of 0.06 µM.

A further assay relates to Oryctolagus cuniculus. Description: Eye irritation potential accessed using Draize in vivo rabbit eye irritation test. The format is functional.
In turn, `CCOCC(=O)O` registered an MES of 2.03. On the same count and under the same terms, as for `CCCC(C)C`, the figure is 0.26; as for `O=C1c2ccccc2C(=O)N1CCCCBr`, 0.19; as for `OCC(O)CO` [GLYCERIN], 0.12. On the same count and under the same terms, as for `Cc1ccccc1` [TOLUENE], the figure is 0.96; as for `CC(C)=O` [ACETONE], 4.83. On the same count and under the same terms, as for `CCC(C)(C)C(=O)O` [DIMEBUTIC ACID], the figure is 5.59; as for `O=[N+]([O-])c1ccc(F)cc1F`, 0.4.

As to `CC(C)O` [ISOPROPYL ALCOHOL], the MES amounted to 2.34. The same measure, in the same setting: with `C=CCCCCCCC=C` the figure was 0.37.

For `CCCCCC(C)=O`, the MES is reported as 2.26.

The compound `Cc1ccc(C)cc1` [P-XYLENE] registered an MES of 1.1. The same measure, in the same setting: with `CC(C)c1cccc(C(C)C)c1` the figure was 0.38; with `CCCCC(CC)CO` (stereo not given), 7.82; with `CCOC(C)=O` [ETHYL ACETATE], 1.47. On the same count and under the same terms, as for `Nc1ccc(F)cc1`, the figure is 6.62. The same measure, in the same setting: with `CCC(C)c1ccccc1` (stereo not given) the figure was 0.31. Compound `CC(O)CO` (stereo not given) [PROPYLENE GLYCOL] registered an MES of 0.1. Same read-out and setting: as for `COC(C)=O` [ACETIC ACID METHYL ESTER], the figure is 3.14; as for `C/C1=C/C=C\C(C)CCC1` (stereo not given), 0.44.

In turn, `C=Cc1ccccc1` [STYRENE] had an MES of 0.77. The same measure, in the same setting: as for `CCCCCCCCCCCC` [DODECANE], the figure is 0.45; as for `CCCCO` [BUTYL ALCOHOL], 5.47.

For the compound `CCOC(=O)C(C)C(C)=O` (stereo not given), the MES is on record as 2.55. Same read-out and setting: with `CC(=O)CC(C)C` [METHYL ISOBUTYL KETONE] the figure was 0.59. The same measure, in the same setting: as for `COC(=O)C(C)(C)C`, the figure is 0.36; as for `CCc1cccc(C)c1`, 0.32. On the same count and under the same terms, as for `CCCCOC(C)=O` [ACETIC ACID BUTYL ESTER], the figure is 0.99; as for `C=CCCC=C`, 0.55; as for `C1=C\CCCCCC/1` [CYCLOOCTENE], 0.43.

Take `OC1CCCCC1` [CYCLOHEXANOL]: the MES amounted to 8.29. `CC(C)CO` [ISOBUTANOL]: the MES is recorded as 6.44.

Consider `CCC(C)=O` [BUTANONE], for which the MES is on record as 4.48. Still for that read-out and setting: with `CCCCCCO` [1-HEXANOL] the figure was 8.13; with `CCOC(=O)C(C)(C)C`, 0.63; with `CCCC(C)CC` (stereo not given), 0.1. `CC1CCCC1` [METHYLCYCLOPENTANE]: the MES was determined as 0.41.

The compound `CCCCOCCO` [BUTOXYETHANOL] showed an MES of 8.99.
